The test concerns virus-stock de souche HSV1. Kind of test: Virucidal properties on HSV1 stock virus (infectious titre after incubation at 37°C). It is filed as cell-based. How it is done: On a apprécié les propriétés virucides du 3,5-di-t-butyl-4-hydroxybenzoate d'octaoxyéthylèneglycol de formule : [drawing 23] dénommé ci-après par commodité AVF1, sur un échantillon de "virus-stock" de souche HSV1. Le titre infectieux (TV) d'échantillons traités avec AVF1 a été comparé au titre infectieux (TV0) d'un échantillon témoin afin de calculer la valeur log (TV/TV0).
Le protocole a consisté à incuber à 37°C l'échantillon de virus HSV1 stock avec le composé AVF1, en faisant varier la concentration en AVF1 et le temps d'incubation. TV0 a été déterminé à partir d'une composition constituée de 0,5 ml de milieu de culture MEM et 0,5 ml de virus-stock et TV a été déterminée à partir d'une composition constituée de 0,5 ml de AVF1 à diverses concentrations dans ledit milieu MEM et de 0,5 ml de virus-stock. Les valeurs TV0 et TV obtenus sont des multiples de la DI50/ml.
• Concentrations en AVF1 : 0,03; 0,06; 0,12; 0,25; 0,5; 1,25; 2,5; 5 mg/ml. • Temps d'incubation : 60 et 120 minutes. • Résultats : • Titre du témoin-virus : […] DI50/ml. • AVF1 < 2,5 mg/ml : TV. • AVF1 ≥ 2,5 mg/ml : 0. • Conclusions : AVF1 est virucide en 60 minutes à la concentration 2,5 mg/ml.
• Concentrations en AVF1 : 1 et 5 mg/ml. • Temps d'incubation : 5, 15, 30, et 60 minutes. • Résultats : • Titre du témoin-virus : 2 x 10^6 DI50/ml • AVF1 = 5 mg/ml : virucide en 5 minutes, titre = 0. • AVF1 = 1 mg/ml : le titre est réduit de 1,5 log 10 en 60 minutes.

For the compound `CC(C)(C)c1cc(C(=O)OCCOCCOCCOCCOCCOCCOCCOCCO)cc(C(C)(C)C)c1O` [AVF1, 3,5-di-t-butyl-4-hydroxybenzoate d'octaoxyéthylèneglycol], the “concentration virucide en 60 minutes” value (Essai 1, 60 minutes, 37°C) was 2,5 mg/ml. The “Titre infectieux (TV)” value (Essai 1, AVF1 ≥ 2,5 mg/ml, incubation 60 and 120 minutes, 37°C) is listed as 0 DI50/ml. In addition, the réduction du titre (Essai 2, AVF1 = 1 mg/ml, 60 minutes) is recorded as 1,5 log 10. In addition, the titre (Essai 2, AVF1 = 5 mg/ml, virucidal in 5 minutes) was determined as 0 DI50/ml.

The record behind these values is EP0804408B1, “NOVEL 4-SUBSTITUTED 2,6-DI-TERT-BUTYLPHENOL COMPOUNDS, PHARMACEUTICAL COMPOSITIONS CONTAINING SAME AND PREPARATION METHOD THEREFOR” (priority 1994, dated 1996).
